Structures are written as SMILES.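 48-hour exposure; five concentrations; linearly interpolated endpoints. TGI is the concentration that stops growth completely.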 A value given as a limit tells only on which side of the number the result lay.

Some test systems named below: NCI-H23 lung; OVCAR-8 ovarian; NCI-H460 lung; KM12 colon; K-562 leukemia; NCI-H522 lung; TK-10 renal; MCF7 breast; UACC-257 melanoma; IGROV1 ovarian; MOLT-4 leukemia; UO-31 renal; HL-60(TB) leukemia; BT-549 breast.
Assay in all cases: inhibition of tumour cell growth, NCI panel, 48 h

On to `COc1ccc2c(c1)CC[C@@H]1C2CC[C@]2(C)C(=C=CP(=O)(O)O)CCC12` (stereo partly drawn), for which the TGI with NCI-H23 lung, in the experiment with OVCAR-8 ovarian, with NCI-H460 lung, with KM12 colon, in the experiment with K-562 leukemia and in the experiment with NCI-H522 lung was over 100 µM each time. In addition, the TGI in the experiment on TK-10 renal, in the experiment on MCF7 breast, with UACC-257 melanoma and in the experiment on IGROV1 ovarian was over 100 µM in each case.

Turning to `CC1(Cl)CC(C)(/C=C/Cl)C(Cl)CC1Cl` (stereo not drawn), the TGI in the experiment on NCI-H23 lung is 44.1 µM; in the experiment on MOLT-4 leukemia it was over 100 µM; in the experiment on OVCAR-8 ovarian it was 31.3 µM; in the experiment with NCI-H460 lung it was 28.7 µM; with KM12 colon, 31.3 µM; in the experiment with K-562 leukemia, 57 µM. Moreover, the TGI amounted to 29.8 µM in the experiment on UO-31 renal, 31.6 µM in the experiment on NCI-H522 lung, 76.7 µM in the experiment on TK-10 renal and 30.4 µM in the experiment with IGROV1 ovarian.

With `O=C1c2ccccc2C(=O)c2sc(Nc3cc(Cl)ccc3Cl)nc21`, the TGI in the experiment with NCI-H23 lung is 28.7 µM; with MOLT-4 leukemia, over 30.4 µM; in the experiment with OVCAR-8 ovarian, 14.2 µM; with NCI-H460 lung, 21.5 µM; in the experiment on KM12 colon, 26.5 µM; in the experiment with K-562 leukemia, over 31.8 µM. Moreover, the TGI in the experiment with UO-31 renal turned out to be 19.4 µM; in the experiment on NCI-H522 lung, 18.3 µM; in the experiment on TK-10 renal it was 29.4 µM; in the experiment on MCF7 breast, 3.7 µM; with HL-60(TB) leukemia, 4.89 µM; in the experiment on UACC-257 melanoma it was 7.76 µM. For the same compound, the TGI with IGROV1 ovarian is 24.3 µM.

For the compound `CC(=O)[C@]1(O)Cc2c(O)c3c(c(O)c2[C@@H](OC2CC(N)C(O)C(C)O2)C1)C(=O)c1c(OCc2ccccc2)cccc1C3=O` (stereo partly drawn), the TGI is 6.9 µM with NCI-H23 lung; 7.8 µM in the experiment with OVCAR-8 ovarian; 6.31 µM in the experiment on NCI-H460 lung; 2.68 µM with K-562 leukemia; 8.79 µM in the experiment on UO-31 renal; 5.19 µM with NCI-H522 lung. The TGI with TK-10 renal was determined as 25 µM; in the experiment with UACC-257 melanoma, 11.1 µM; in the experiment with BT-549 breast, 21.2 µM; with IGROV1 ovarian it was 33.8 µM.

On to `Cn1c(NC(=O)NC23CC4CC(CC(C4)C2)C3)nc2ccccc21`, for which the TGI in the experiment with NCI-H23 lung, in the experiment on MOLT-4 leukemia, in the experiment on OVCAR-8 ovarian, with NCI-H460 lung, in the experiment with KM12 colon and with K-562 leukemia was over 100 µM throughout. The TGI in the experiment with UO-31 renal, in the experiment with NCI-H522 lung, in the experiment with TK-10 renal, with HL-60(TB) leukemia, in the experiment on UACC-257 melanoma and with IGROV1 ovarian was over 100 µM each time.

As to `COc1ccc(/C=N/Nc2nnc3c(n2)c2ccccc2c2nn(-c4ccccc4Cl)nc23)cc1`, the TGI in the experiment with NCI-H23 lung, in the experiment on MOLT-4 leukemia, in the experiment with OVCAR-8 ovarian, in the experiment on KM12 colon, in the experiment on K-562 leukemia and in the experiment with UO-31 renal was over 100 µM throughout. Moreover, the TGI with NCI-H522 lung, in the experiment with TK-10 renal, in the experiment with UACC-257 melanoma, with BT-549 breast and with IGROV1 ovarian was over 100 µM each time.

Consider `O=C(O)/C=C/c1ccncc1`, for which the TGI in the experiment with NCI-H23 lung, with MOLT-4 leukemia, in the experiment on OVCAR-8 ovarian, in the experiment with NCI-H460 lung, in the experiment with KM12 colon and in the experiment with K-562 leukemia was over 100 µM throughout. Further, the TGI with UO-31 renal, in the experiment with NCI-H522 lung, with TK-10 renal, with HL-60(TB) leukemia, with UACC-257 melanoma and in the experiment with IGROV1 ovarian was over 100 µM throughout.

`Cc1ccc(NC(=O)C(=O)Cc2cccc[n+]2[O-])cc1C`: the TGI with NCI-H23 lung, in the experiment with MOLT-4 leukemia, with OVCAR-8 ovarian, in the experiment with NCI-H460 lung, in the experiment on KM12 colon and in the experiment on K-562 leukemia was over 100 µM throughout. The TGI with UO-31 renal, in the experiment with NCI-H522 lung, in the experiment with TK-10 renal, in the experiment with HL-60(TB) leukemia, in the experiment with UACC-257 melanoma and in the experiment with IGROV1 ovarian was over 100 µM each time.

`C=CCOC(=O)N1c2ccc(O)cc2[C@@]23O[C@@]24[C@@H]1C#C/C=C\C#C[C@]3(O)C(=O)C[C@@H]4C`: the TGI was over 100 µM in the experiment with NCI-H23 lung; 49.4 µM in the experiment on MOLT-4 leukemia; over 100 µM with OVCAR-8 ovarian; over 100 µM with NCI-H460 lung; over 100 µM in the experiment on KM12 colon; over 100 µM in the experiment on K-562 leukemia. In addition, the TGI in the experiment with UO-31 renal, in the experiment with NCI-H522 lung, in the experiment with TK-10 renal, in the experiment on MCF7 breast, in the experiment with HL-60(TB) leukemia and in the experiment on UACC-257 melanoma was over 100 µM each time. In addition, in the experiment with IGROV1 ovarian, the TGI is over 100 µM.

For `CSc1nc(C)c2c(n1)N(c1ccc(Cl)cc1)CC2`, the TGI in the experiment on NCI-H23 lung, with MOLT-4 leukemia, in the experiment on OVCAR-8 ovarian, in the experiment on NCI-H460 lung, with KM12 colon and with K-562 leukemia was over 100 µM each time. Also, the TGI with NCI-H522 lung, in the experiment on TK-10 renal, in the experiment with MCF7 breast, with UACC-257 melanoma and in the experiment with IGROV1 ovarian was over 100 µM each time.

In the case of `O=S(=O)(O)c1cc(O)c(N=Nc2ccc3ccccc3c2O)c2ccccc12`, the TGI in the experiment with NCI-H23 lung was 30.8 µM; in the experiment with MOLT-4 leukemia, 97 µM; with KM12 colon, over 100 µM; in the experiment on K-562 leukemia, 74.6 µM; in the experiment on UO-31 renal, 65 µM; with NCI-H522 lung, 40.2 µM. Moreover, the TGI in the experiment on TK-10 renal is over 100 µM; in the experiment on HL-60(TB) leukemia, over 100 µM; with UACC-257 melanoma it was 66.7 µM; in the experiment on BT-549 breast, over 100 µM; with IGROV1 ovarian, 32.3 µM.

As for `Cc1ccccc1Nc1nc2ccccc2nc1NS(=O)(=O)c1ccccc1`, the TGI with NCI-H23 lung, in the experiment on MOLT-4 leukemia, in the experiment with OVCAR-8 ovarian, with NCI-H460 lung, with KM12 colon and in the experiment on K-562 leukemia was over 100 µM in each case. Besides, the TGI with UO-31 renal, in the experiment with NCI-H522 lung, in the experiment on TK-10 renal, in the experiment on MCF7 breast, in the experiment with HL-60(TB) leukemia and in the experiment on UACC-257 melanoma was over 100 µM throughout. Also, in the experiment on IGROV1 ovarian, the TGI is over 100 µM.

(Values after PubChem BioAssay (NCI).)
